Counter-ions that a name gives are not always drawn.

One assay relates to Guinea Pig Ileum. The assay is described as follows: Guinea pig ileum assay: inhibition of tonic contraction (K+ challenge) of longitudinal muscle, calcium channel blocking. The class given is cell-based. The following applies: Cavia porcellus; concentration inhibiting tonic contraction of muscle by 50%; 80 mM K+ challenge, 37° C., compound 2 minutes prior. As for the experimental part: GUINEA PIG ILEUM ASSAY Male guinea-pigs weighing from 300-400 grams were stunned and bled. The abdomen was opened and 10-15 cm of terminal ileum was carefully removed and cleaned and placed in Tyrode's Solution of the following composition: NaCl (8 g/l), KCl (0.2 g/l), MgCl2 (0.1 g/l.), CaCl2 (0.2 g/l). NaH2 PO4 (0.05 g/l), NaHCO3 (1.0 g/l) and Glucose (1 g/l). The solution was maintained at 37° C. and gassed with 95%O2 and 5%CO2. Portions of the ileum were placed over a glass rod, a shallow incision was made the length of the mesenteric attachment just severing the outer-longitudinal muscle layer. The longitudinal muscle was separated from the underlying circular muscle by gentle dissection (Rang, H. P. Annals of New York Academy of Science, vol. 144, page 756, 1964). The tissue was fixed at one end to a tissue holder, the other end was connected by a thread to a force transducer and suspended in a muscle bath containing Tyrode's Solution maintained at 37° C. and gassed with 95%O2 and 5%CO2. An initial tension of 500 mg was applied and the tissue allowed to equilibrate for 60 minutes prior to the start of the study. During this period the tissue was washed every 16 minutes. Each preparation, at 16 minute intervals, was challenged with KCl sufficient to yield a bath K^+ concentration of 80 mMK for 2 minutes, then washed with fresh solution. The 16 minute interval between K^+ challenges was maintained throughout the study. Upon stabilization of the responses to the K^+ challenge the test compound (potential calcium entry antagonist) was introduced into the bath 2 minutes prior to and during the 2 minute exposure to K^+ after which the bath was cleared and washed with fresh solution. Logarithmically increasing doses (up to 10^-4 M) of the potential antagonist were administered as the study progressed. The measure of a compound's ability to inhibit the tonic contraction of muscle is a measure of its activity as a calcium channel blocking agent.

The subject of assay [1] is Spontaneously Hypertensive (SH) Rat. As to the kind of experiment: Blood pressure lowering in the spontaneously hypertensive (SH) rat. The class given is in vivo. As to conditions: oral, male SH rats. As to the method: BLOOD PRESSURE LOWERING IN THE SPONTANEOUSLY HYPERTENSIVE (SH) RAT
Six male SH rats were used for each test. Body weights were recorded. Six pre-drug control recordings of the systolic blood pressure (mmHg) were measured from the tails of the rats which were unanesthetized and restrained in holders. The rats were previously heated for 5-10 minutes at 32°-34° C. The systolic blood pressure was measured by an occlusion cuff.
The compounds were administered orally to the rats in a composition that included 5% compound and the remainder gum acacia. The blood pressure of the rats was measured over a period of hours following oral administration.
The measure of a compound's ability to decrease blood pressure, is a measure of its activity as an anti-hypertensive agent.

Consider `COc1ccc([C@@H]2Sc3cccc4cccc(c34)N(CCN(C)C)C(=O)[C@H]2OC(C)=O)cc1` (racemic) [OCOCH3 HCl (±)-trans, (±)-trans-3-(acetyloxy)-2,3-dihydro-5-[2-(dimethylamino)ethyl]-2-(4-methoxy-phenyl)-naphtho[1,8-bc]-1,5-thiazocin4(5H)-one hydrochloride], for which, in the assay with Guinea Pig Ileum, the IC50 worked out at 3 µM.
Take `COc1ccc([C@@H]2Sc3cccc4cccc(c34)N(CCN(C)C)C(=O)[C@@H]2O)cc1` (racemic) [OH HCl (±)-cis, (±)-cis-2,3-dihydro-5-[2-(dimethylamino)ethyl]-3-hydroxy-2-(4-methoxyphenyl)naphtho[1,8-bc]-1,5-thiazocin-4(5H)-one hydrochloride]: the IC50 with Guinea Pig Ileum was 4.2 µM.
On the same count and under the same terms, for `COc1ccc([C@@H]2Sc3cccc4cccc(c34)N(CCN(C)C)C(=O)[C@@H]2OC(C)=O)cc1` (relative stereo) [OCOCH3 HCl (±)-cis, (±)-cis-3-(acetyloxy)-2,3-dihydro-5-[2-dimethylamino)ethyl]-2-(4-methoxyphenyl)naphtho[1,8-bc]-1,5-thiazocin-4(5H)-one hydrochloride] the value was 3.9 µM.
Consider `COc1ccc([C@@H]2Sc3cccc4cccc(c34)N(CCN(C)C)C(=O)[C@@H]2OC(C)=O)cc1.O=C(O)/C=C/C(=O)O` [OCOCH3 fumarate (+)-cis, (+)-cis-3-(acetyloxy)-2,3-dihydro-5-[2-(dimethylamino)ethyl]-2-(4-methoxyphenyl)naphtho[1,8-bc]-1,5-thiazocin-4(5H)-one (E)-2-butenedioate], for which the IC50 in the assay with Guinea Pig Ileum came to 0.25 µM. Moreover, the “Systolic Blood Pressure in SH Rat Peak Decrease (Δ mm Hg)” value in assay [1] (unanesthetized, occlusion cuff on tail, peak decrease) is listed as -66 ± 12 mm Hg. Also, in assay [1] (footnote a), the “Duration of Effect on blood pressure” value lay in the range of 1 to 6 h.
As to `COc1ccc([C@@H]2Sc3cccc4cccc(c34)N(CCN(C)C)C(=O)[C@@H]2O)cc1` [OH HCl (+)-cis, (+)-cis-2,3-dihydro-5-[2-(dimethylamino)ethyl]-3-hydroxy-2-(4-methoxyphenyl)naphtho[1,8-bc]-1,5-thiazocin-4(5H)-one hydrochloride], in the assay with Guinea Pig Ileum, the half-maximal inhibitory concentration (IC50) was found to be 3.1 µM.

(Values after patent publication US4640930A, “Naphtho(1,8-bc)-1,5-thiazocinones” (Hoffmann-La Roche Inc., priority 1986, dated 1987).)
